From ChEMBL document CHEMBL2169859, “Modulation of tau protein fibrillization by oleocanthal” (J Nat Prod, 2012)
Activity calls are given as the source filed them.

Tests used:
Homo sapiens [1] = species: Homo sapiens; assay: Inhibition of arachidonic acid-induced human recombinant Tau 2N4R fibrillation expressed in Escherichia coli preincubated for 1 hr prior to arachidonic acid challenge measured 6 hrs post arachidonic challenge by Thioflavin-S fluorescence assay
Homo sapiens [2] = species: Homo sapiens; assay: Inhibition of arachidonic acid-induced human recombinant Tau 2N4R fibrillation expressed in Escherichia coli assessed as alpha helix formation at 125 uM preincubated for 1 hr prior to arachidonic acid challenge measured 28 hrs post arachidonic challenge by CD spectroscopic analysis
Homo sapiens [3] = species: Homo sapiens; assay: Binding affinity to human recombinant Tau 2N4R expressed in Escherichia coli assessed as change in protein conformation at 10 mM measured for 60 mins by H/D exchange mass spectrometric analysis
Homo sapiens [4] = species: Homo sapiens; assay: Inhibition of human recombinant Tau 2N4R fibrillation expressed in Escherichia coli assessed as alpha helix formation at 125 uM after 1 hr by CD spectroscopic analysis
Homo sapiens [5] = species: Homo sapiens; assay: Binding affinity to human recombinant Tau 2N4R expressed in Escherichia coli at 0.1 to 25 uM by SPR analysis

C/C=C(/C=O)[C@@H](CC=O)CC(=O)OCCc1ccc(O)cc1
active: inhibition (Homo sapiens [1]) Dose-dependent effect | inhibition (Homo sapiens [2]) | Activity (Homo sapiens [3]) | inhibition (Homo sapiens [4]) | Activity (Homo sapiens [5])
